Test results: paper PMC10378394 (Current Issues in Molecular Biology, 2023)
pEC50: −log10 of the molar value. Where “and” joins values, the source holds several entries; their conditions need not be identical. Equal values may be shown once.

Assays:
[1] = molecular target: CDK3/cyclinE(h) (Homo sapiens, UniProt Q00526); assay: Eurofins kinase assay
[2] = molecular target: PI3Kinase(p110a/p85a)(h) (Homo sapiens, UniProt P42336); assay: Eurofins kinase assay
[3] = molecular target: T1, ARAF (Homo sapiens, UniProt P10398); assay: KiNativ cell-based kinase assay in HCT116; design: purchased Eurofins (Poitiers, France); settings: HCT116, full-length protein; read-out: Binding Affinities in HCT116 (EC50)
T1 sequence (P10398 1-606): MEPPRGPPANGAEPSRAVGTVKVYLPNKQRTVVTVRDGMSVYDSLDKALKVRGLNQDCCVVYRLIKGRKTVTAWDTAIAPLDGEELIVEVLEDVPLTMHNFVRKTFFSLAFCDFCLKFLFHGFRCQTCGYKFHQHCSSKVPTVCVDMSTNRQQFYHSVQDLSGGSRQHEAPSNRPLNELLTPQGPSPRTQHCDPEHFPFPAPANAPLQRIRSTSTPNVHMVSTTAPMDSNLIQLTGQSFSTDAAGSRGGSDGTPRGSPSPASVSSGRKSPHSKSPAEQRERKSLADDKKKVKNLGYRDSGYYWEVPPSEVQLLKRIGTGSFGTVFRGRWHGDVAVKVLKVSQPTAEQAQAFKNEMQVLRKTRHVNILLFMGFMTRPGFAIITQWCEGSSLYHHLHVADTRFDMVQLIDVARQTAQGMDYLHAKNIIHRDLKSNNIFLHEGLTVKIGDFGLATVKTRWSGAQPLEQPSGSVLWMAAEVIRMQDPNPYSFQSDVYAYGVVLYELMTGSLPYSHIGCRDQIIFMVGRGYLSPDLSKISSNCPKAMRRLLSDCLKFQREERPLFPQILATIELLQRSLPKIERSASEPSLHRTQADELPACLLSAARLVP
Method: (§1) Kinase selectivity profiling in cells was carried out using the KiNativ assay developed by ActivX Biosciences (La Jolla, CA, USA). HCT 116 cells were utilized for the experiment. […] Following the treatment, the cells were lysed, and the lysates were processed for further analysis. Probe labeling was performed using the lysates, and the labeled samples were subjected to LC/MS-MS (Liquid Chromatography/Mass Spectrometry) analysis.

[4] = molecular target: CRAF (Homo sapiens, UniProt P04049); assay: KiNativ cell-based kinase assay in HCT116; design: purchased Eurofins (Poitiers, France)
Chain of CRAF (P04049 whole entry): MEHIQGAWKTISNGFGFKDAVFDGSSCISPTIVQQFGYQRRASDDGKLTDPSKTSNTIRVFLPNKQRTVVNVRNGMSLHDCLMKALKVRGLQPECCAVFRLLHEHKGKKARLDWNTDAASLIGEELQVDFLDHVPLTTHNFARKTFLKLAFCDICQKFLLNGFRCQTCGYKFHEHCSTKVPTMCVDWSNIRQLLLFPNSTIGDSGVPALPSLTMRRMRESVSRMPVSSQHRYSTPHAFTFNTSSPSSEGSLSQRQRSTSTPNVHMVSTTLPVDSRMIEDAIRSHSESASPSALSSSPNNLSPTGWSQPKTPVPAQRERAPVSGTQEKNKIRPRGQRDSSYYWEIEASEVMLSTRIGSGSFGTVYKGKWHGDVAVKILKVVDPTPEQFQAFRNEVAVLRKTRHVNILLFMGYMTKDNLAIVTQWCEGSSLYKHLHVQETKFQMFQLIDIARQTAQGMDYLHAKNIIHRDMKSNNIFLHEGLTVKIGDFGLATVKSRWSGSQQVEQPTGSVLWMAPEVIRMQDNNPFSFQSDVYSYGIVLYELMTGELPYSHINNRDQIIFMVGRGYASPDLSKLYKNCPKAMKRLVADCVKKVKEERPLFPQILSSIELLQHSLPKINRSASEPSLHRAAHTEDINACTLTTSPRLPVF
Method: as §1

[5] = molecular target: BRAF (Homo sapiens, UniProt P15056); assay: KiNativ cell-based kinase assay in HCT116; design: purchased Eurofins (Poitiers, France)
Chain of BRAF (P15056 whole entry): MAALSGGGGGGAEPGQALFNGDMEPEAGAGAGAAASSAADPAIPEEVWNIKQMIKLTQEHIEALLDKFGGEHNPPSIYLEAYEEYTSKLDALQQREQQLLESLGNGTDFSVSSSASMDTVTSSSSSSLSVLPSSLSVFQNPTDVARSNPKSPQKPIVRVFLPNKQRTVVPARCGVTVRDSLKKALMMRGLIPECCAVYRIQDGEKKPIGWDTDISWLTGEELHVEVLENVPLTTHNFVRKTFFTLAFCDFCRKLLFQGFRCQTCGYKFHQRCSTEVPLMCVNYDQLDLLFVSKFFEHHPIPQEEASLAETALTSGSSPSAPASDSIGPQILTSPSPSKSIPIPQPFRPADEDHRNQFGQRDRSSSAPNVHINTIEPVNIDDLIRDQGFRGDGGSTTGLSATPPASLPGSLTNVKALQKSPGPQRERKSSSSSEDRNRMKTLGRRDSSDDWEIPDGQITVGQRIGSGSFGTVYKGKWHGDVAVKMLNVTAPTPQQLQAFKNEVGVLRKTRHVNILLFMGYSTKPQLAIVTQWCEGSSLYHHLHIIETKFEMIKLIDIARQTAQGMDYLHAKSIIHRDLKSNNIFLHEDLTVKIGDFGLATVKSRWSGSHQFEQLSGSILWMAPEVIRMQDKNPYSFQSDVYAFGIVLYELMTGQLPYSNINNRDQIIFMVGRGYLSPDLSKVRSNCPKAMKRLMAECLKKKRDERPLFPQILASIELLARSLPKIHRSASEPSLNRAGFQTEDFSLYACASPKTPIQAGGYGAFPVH
Method: as §1

[6] = molecular target: MST2(h) (Homo sapiens, UniProt Q13188); assay: Eurofins kinase assay
[7] = molecular target: EphB4(h) (Homo sapiens, UniProt P54760); assay: Eurofins kinase assay
[8] = molecular target: PI3Kinase(p110a(E542K)/p85a)(m) (Mus musculus, UniProt P42337, E542K); assay: Eurofins kinase assay
[9] = Single oral dose toxicity study; assay type: in vivo, Sprague Dawley rats; settings: 500 mg/kg oral
[10] = molecular target: PI3Kinase(p110a(E545K)/p85a)(m) (Mus musculus, UniProt P42337, E545K); assay: Eurofins kinase assay
Chain of PI3Kinase(p110a(E545K)/p85a)(m) (P42337 whole entry E545K): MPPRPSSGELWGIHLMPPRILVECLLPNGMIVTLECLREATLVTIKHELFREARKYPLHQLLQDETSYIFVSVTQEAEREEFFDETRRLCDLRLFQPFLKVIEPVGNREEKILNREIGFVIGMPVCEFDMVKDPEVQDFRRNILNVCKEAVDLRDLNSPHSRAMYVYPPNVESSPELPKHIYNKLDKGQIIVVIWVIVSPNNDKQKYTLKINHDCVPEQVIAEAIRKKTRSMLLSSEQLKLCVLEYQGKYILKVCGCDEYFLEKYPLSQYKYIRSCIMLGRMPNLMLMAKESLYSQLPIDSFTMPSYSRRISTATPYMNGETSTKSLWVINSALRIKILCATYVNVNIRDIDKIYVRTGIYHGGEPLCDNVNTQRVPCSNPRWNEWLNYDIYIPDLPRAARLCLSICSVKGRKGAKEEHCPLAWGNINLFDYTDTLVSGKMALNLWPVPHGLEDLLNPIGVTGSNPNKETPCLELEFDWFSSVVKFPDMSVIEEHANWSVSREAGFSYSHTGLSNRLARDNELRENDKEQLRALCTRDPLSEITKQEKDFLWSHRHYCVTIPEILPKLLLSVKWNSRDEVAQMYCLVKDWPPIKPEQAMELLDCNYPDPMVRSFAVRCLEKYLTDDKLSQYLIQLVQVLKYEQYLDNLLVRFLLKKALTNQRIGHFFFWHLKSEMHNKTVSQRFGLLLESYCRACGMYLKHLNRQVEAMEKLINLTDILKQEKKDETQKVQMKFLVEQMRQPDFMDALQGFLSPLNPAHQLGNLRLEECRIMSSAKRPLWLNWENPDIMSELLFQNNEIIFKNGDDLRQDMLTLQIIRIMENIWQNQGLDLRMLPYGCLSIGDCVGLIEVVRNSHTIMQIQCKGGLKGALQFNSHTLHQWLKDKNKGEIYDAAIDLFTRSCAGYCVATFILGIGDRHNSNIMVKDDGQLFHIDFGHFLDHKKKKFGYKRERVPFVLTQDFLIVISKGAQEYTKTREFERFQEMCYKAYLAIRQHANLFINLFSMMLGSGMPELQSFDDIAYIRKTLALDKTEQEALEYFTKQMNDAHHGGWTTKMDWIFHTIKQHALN
Chain of PI3Kinase(p110a(E545K)/p85a)(m) (P26450 2-724 partner): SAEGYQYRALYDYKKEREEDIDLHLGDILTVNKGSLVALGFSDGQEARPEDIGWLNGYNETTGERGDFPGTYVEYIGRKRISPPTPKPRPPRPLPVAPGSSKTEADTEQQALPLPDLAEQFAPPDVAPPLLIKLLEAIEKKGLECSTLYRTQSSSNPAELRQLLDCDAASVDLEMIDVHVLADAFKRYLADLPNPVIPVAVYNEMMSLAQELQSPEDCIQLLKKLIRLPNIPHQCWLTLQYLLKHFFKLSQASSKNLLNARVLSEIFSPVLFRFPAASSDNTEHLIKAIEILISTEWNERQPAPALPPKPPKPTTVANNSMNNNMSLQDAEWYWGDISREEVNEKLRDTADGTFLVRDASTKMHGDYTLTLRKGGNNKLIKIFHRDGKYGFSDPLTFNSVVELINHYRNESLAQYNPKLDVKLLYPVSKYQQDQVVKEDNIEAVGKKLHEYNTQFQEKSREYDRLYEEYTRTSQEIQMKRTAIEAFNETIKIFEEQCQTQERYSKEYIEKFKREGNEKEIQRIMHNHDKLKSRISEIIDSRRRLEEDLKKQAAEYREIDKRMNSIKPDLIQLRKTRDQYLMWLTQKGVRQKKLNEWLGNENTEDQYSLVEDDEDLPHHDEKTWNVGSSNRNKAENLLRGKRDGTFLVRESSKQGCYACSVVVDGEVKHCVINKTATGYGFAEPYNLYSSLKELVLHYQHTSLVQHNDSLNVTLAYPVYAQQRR

[11] = molecular target: PAK2(h) (Homo sapiens, UniProt Q13177); assay: Eurofins kinase assay
[12] = molecular target: BRAF (V600E) (Homo sapiens, UniProt P15056, V600E); assay: Eurofins kinase assay
[13] = Single oral dose, central nervous system; assay type: in vivo, ICR mice; settings: single oral dose 500 mg/kg
[14] = molecular target: PKCα(h) (Homo sapiens, UniProt P17252); assay: Eurofins kinase assay
[15] = molecular target: CSK(h) (Homo sapiens, UniProt P41240); assay: Eurofins kinase assay
Chain of CSK(h) (P41240 whole entry): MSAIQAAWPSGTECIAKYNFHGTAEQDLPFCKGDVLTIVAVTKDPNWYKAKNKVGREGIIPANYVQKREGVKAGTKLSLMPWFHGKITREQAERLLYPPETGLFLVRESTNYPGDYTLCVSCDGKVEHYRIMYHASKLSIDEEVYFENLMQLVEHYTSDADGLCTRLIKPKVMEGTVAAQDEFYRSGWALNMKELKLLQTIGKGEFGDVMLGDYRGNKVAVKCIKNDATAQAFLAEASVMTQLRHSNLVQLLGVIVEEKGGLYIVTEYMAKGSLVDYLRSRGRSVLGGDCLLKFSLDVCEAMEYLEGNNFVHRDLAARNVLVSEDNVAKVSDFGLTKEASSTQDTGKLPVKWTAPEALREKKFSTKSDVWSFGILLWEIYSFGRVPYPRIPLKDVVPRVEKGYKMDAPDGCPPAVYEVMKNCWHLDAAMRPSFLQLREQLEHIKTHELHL

[16] = molecular target: Bmx(h) (Homo sapiens, UniProt P51813); assay: Eurofins kinase assay
[17] = tested on: LS513 (KRAS G12D); assay: Cell proliferation assay (CellTiter-Glo); settings: Homo sapiens, LS-513, 72 h
Method: To assess cell viability, the CellTiter-Glo Luminescent Cell Viability Assay Reagent (Promega, Fitchburg, WI, USA) was added to each well. The assay measured ATP levels as an indicator of cell viability. All data points were normalized to the control samples treated with dimethyl sulfoxide when determining IC50 values. Statistical calculations and data analysis, including IC50 determination, were performed using GraphPad Prism software.

[18] = molecular target: CDK2/cyclinA(h) (Homo sapiens, UniProt P24941); assay: Eurofins kinase assay
[19] = molecular target: PKCδ(h) (Homo sapiens, UniProt Q05655); assay: Eurofins kinase assay
[20] = molecular target: SGK(h) (Homo sapiens, UniProt O00141); assay: Eurofins kinase assay
[21] = molecular target: Syk(h) (Homo sapiens, UniProt P43405); assay: Eurofins kinase assay
[22] = Pharmacokinetic study; assay type: in vivo, C57BL/6 mice
Method: Blood samples were collected at each time point for analysis. Plasma samples were analyzed by liquid chromatography–mass spectrometry (LC-MS/MS).

[23] = 2-week repeated oral DRF toxicity study; assay type: in vivo
[24] = HCT116, full-length protein, read-out: Binding Affinities in HCT116 (EC50)
[25] = HCT 116 cells, 2 h, 10 µM, read-out: inhibition of probe binding
[26] = male, C57BL/6, mouse, plasma, iv 5 mg/kg
[27] = male, C57BL/6, mouse, plasma, po 40 mg/kg

Chain of CDK3/cyclinE(h) (Q00526 whole entry): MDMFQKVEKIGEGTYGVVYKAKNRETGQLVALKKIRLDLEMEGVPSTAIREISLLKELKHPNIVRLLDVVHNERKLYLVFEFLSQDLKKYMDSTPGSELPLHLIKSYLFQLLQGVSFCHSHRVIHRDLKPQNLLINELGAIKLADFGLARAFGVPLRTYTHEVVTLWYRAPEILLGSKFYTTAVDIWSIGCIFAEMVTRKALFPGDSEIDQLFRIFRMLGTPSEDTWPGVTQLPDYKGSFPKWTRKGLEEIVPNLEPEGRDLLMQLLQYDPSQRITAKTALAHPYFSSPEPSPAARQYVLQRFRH
Chain of CDK3/cyclinE(h) (P24864 whole entry partner): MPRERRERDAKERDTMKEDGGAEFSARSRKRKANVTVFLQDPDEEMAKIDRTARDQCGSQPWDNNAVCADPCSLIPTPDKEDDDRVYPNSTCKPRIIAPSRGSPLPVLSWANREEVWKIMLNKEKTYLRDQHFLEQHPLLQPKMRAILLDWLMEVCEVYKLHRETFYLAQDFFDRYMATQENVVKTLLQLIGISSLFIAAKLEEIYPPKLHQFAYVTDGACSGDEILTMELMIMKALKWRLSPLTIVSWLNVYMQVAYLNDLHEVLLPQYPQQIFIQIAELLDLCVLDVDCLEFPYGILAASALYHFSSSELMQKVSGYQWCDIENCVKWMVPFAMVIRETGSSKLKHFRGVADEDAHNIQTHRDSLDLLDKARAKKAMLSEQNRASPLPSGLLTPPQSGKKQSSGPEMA

O=C(Nc1cc(Nc2ncccc2-c2ncnc3[nH]cnc23)ccc1F)c1cc(C(F)(F)F)cc(C(F)(F)F)c1 [SJ-C1044, N-(5-(3-(9H-purin-6-yl)pyridin-2-ylamino)-2-fluorophenyl)-3,5-bis(trifluoromethyl)benzamide]
inhibition at 10 µM [1]: -7% | inhibition at 10 µM [2]: 23% | pEC50 [3]: < 5.00 | pEC50 [4, 24]: 5.85 | inhibition at 10 µM [4, 25]: 83% | pEC50 [5, 24]: 5.89 | inhibition at 10 µM [5, 25]: 86% | inhibition at 10 µM [6]: 9% | inhibition at 10 µM [7]: -6% | inhibition at 10 µM [8]: 24% | single oral dose toxicity [9]: no respiratory effects or signs of toxicity | inhibition at 10 µM [10]: 20% | inhibition at 10 µM [11]: -1% | inhibition at 10 µM [12]: 80% | central nervous system changes [13]: did not result in any abnormal changes | inhibition at 10 µM [14]: -14% | inhibition at 10 µM [15]: 3% | inhibition at 10 µM [16]: -1% | GI50 [17]: 0.29 µM | inhibition at 10 µM [18]: -8% | inhibition at 10 µM [19]: -14% | inhibition at 10 µM [20]: -34% | inhibition at 10 µM [21]: -26% | sustained plasma concentration ([22]; for 16 h per day, 40 mg/kg once daily, 40 mg/kg): ≥ 8000 ng/mL and ≥ 14 μM | AUC(0-t) [22, 26]: 97.8 µg·h/mL | Cmax [22, 26]: 11400 ng/mL | Tmax [22, 26]: 1.6 h | AUC(0-t) [22, 27]: 228 µg·h/mL | Cmax [22, 27]: 14900 ng/mL | Tmax [22, 27]: 4.3 h | bioavailability [22, 27]: 23% | 2-week repeated oral toxicity ([23]; 250 mg/kg oral): no toxicity | 2-week repeated oral toxicity ([23]; 500 mg/kg oral): decreased body weight
